Experimental data taken from US20250082598A1, “Melafenoxate, 2-(1-adamantylamino)ethyl 2-(4-chlorophenoxy)acetate and derivatives thereof for treating circadian rhythm sleep disorders with neurodegenerative diseases such as Alzheimer's disease” (NLS Pharmaceutics AG, priority 2021, published 2025).
“Also recorded” adds a separate entry of the source.

Tested on: C57BL/6J mice
Test: Scopolamine-induced amnesia in the novel object recognition (NOR) test
Format: in vivo
Description: The scopolamine-induced amnesia in the novel object recognition (NOR) test in mice is a recognized in vivo model of Alzheimer Disease (AD).
The aim of this study is to examine whether Melafenoxate (NLS-8) improves amnesia induced by scopolamine in the NOR test.
Experiments were carried out on C57BL/6J mice.
In a first step of the experiment, NLS-8 was tested at 25, 50 and 100 mg/kg.
Animals were divided into 6 groups (N=4-10/group).
At T=0 min, they received the following treatments by intraperitoneal (i.p.) route: • Control group: vehicle. • Scopolamine group: scopolamine (1.2 mg/kg). • NLS-8 25 group: NLS-8 (25 mg/kg)+scopolamine (1.2 mg/kg). • NLS-8 50 group: NLS-8 (50 mg/kg)+scopolamine (1.2 mg/kg). • NLS-8 100 group: NLS-8 (100 mg/kg)+scopolamine (1.2 mg/kg). • NLS-8 150 group: NLS-8 (150 mg/kg)+scopolamine (1.2 mg/kg).
At T=30 min following treatment, animals were subjected to a sample trial. They were placed for a 12-min session in a circular experimental box in which two identical objects were presented (50% of animals: two brown cylindrical vials; 50% of animals: two black rectangular columns). At t=120 min following treatments, mice were subjected to a choice trial. They were placed again for a 12-min session in the same experimental box in which two different objects (a vial and a column) were presented: one of the objects (termed as familiar object) presented in the sample trial and a novel object. Exploration of the objects was recorded by an experimenter blind to treatment and unaware of which object was the novel one and which object was the familiar one.
DI(discrimination index)=100 ×(exploration time of the novel object−exploration time of the familiar object)/(exploration time of the novel object+exploration time of the familiar object). • Index of exploration: N+F=exploration time of the novel object+exploration time of the familiar object.
• Within group comparisons: DI vs. 0 (paired Student's t test). • Between group comparisons vs. the Control group and vs. the Scopo group: unpaired Student's t test.

[1] = NLS-8 25-150 mg/kg + scopolamine 1.2 mg/kg i.p.

In the case of O=C(COc1ccc(Cl)cc1)OCCNC12CC3CC(CC(C3)C1)C2 [Melafenoxate, 2-(1-adamantylamino)ethyl 2-(4-chlorophenoxy)acetate], the “discrimination index vs. 0 (within group)” value (NLS-8 25 mg/kg + scopolamine 1.2 mg/kg i.p.) is reported as “Non-significantly higher than 0”, the “discrimination index vs. 0 (within group)” value (NLS-8 50 mg/kg + scopolamine 1.2 mg/kg i.p.) is reported as “Significantly higher than 0” and the “exploration time of objects (N+F) during the choice trial” value (NLS-8 50 mg/kg + scopolamine 1.2 mg/kg i.p., vs. Control and Scopo groups) is reported as “higher than that of Control and Scopo groups”. For the same molecule, the “discrimination index vs. 0 (within group)” value (NLS-8 100 mg/kg + scopolamine 1.2 mg/kg i.p.) was “Non-significantly higher than 0”, the “discrimination index vs. 0 (within group)” value (NLS-8 150 mg/kg + scopolamine 1.2 mg/kg i.p.) was “Non-significantly higher than 0” and the “effect on amnesia induced by scopolamine (conclusion)” value (NLS-8 25-150 mg/kg) was “can improve amnesia induced by scopolamine”. The “discrimination index, NLS-8 groups vs. Control group” value [1] was “Not significantly different”, the “discrimination index, NLS-8 groups vs. Scopo group” value [1] was “Not significantly different; also recorded: not significant” and the “exploration time of objects (N+F) during the choice trial” value (all other comparisons (other than NLS-8 50 group) vs. Control and vs. Scopo group) was “not significant”.
